Among the data in patent publication US20200385371A1 (Propellon Therapeutics Inc., priority 2017, published 2020) are IC50, EC50 and Kd values, retold here.

Structures are written as SMILES. pEC50, pIC50, pKd: −log10 of the molar value.

Assay [1] concerns the target T1, WDR5 (Homo sapiens, UniProt P61964). Nature of the assay: Fluorescence Polarization (FP) binding assay. The method, boiled down:
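Buffer was pH 6.5 sodium phosphate (80 mM) with 20 mM KCl and 0.008% Triton X-100; 9-Ala-FAM probe at 20 nM used 0.05 μM WDR5 and 480/540 nm polarization, H3 (1-15) probe at 30 nM used 0.3 μM WDR5 and 485/528 nm. Quadruplicate data were hyperbola-fitted to give Kdisp.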

The subject of the next assay is MV4-11 cells. Nature of the assay: Cell proliferation assay (ATPlite). It counts as cell-based. The conditions noted are these: Homo sapiens, 120 h; MV4-11 cells, five days; read-out: GI MV411 EC50. Summed up:
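ATPlite luminescence after five days' culture (37° C, 5% CO2) gives viability. Compounds dosed in 10 concentrations up to 10 μM against DMSO; 1,000 cells/well seeded in Alpha-MEM/10% FBS.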

Assay [2] addresses T1, WDR5. Description: Surface Plasmon Resonance (SPR) assay. It counts as binding. Also noted: Full length WDR5 with an N-terminal His tag and C-terminal AviTag; His tag (N); made in house; host or cells: E. coli. The conditions noted are these: read-out: SPR Kd. Summed up:
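Full-length biotinylated WDR5 (N-His, C-AviTag, E. coli) captured (~3000 RU) on streptavidin SA chip; Biacore T200. HBS-EP pH 7.4 plus 5% DMSO running buffer, 40 μl/min.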

Consider `C[C@@H]1CN(c2cc(F)c(C3=CCN(C(=O)OC4CC(F)(F)C4)C3)c(F)c2NC(=O)c2c[nH]c(=O)cc2C(F)(F)F)C[C@H](C)N1C` [Example 136, 3,3-Difluorocyclobutyl 3-(2,6-difluoro-3-(6-oxo-4-(trifluoromethyl)-1,6-dihydropyridine-3-carboxamido)-4-((3S,5R)-3,4,5-trimethylpiperazin-1-yl)phenyl)-2,5-dihydro-1H-pyrrole-1-carboxylate], for which the pIC50 at WDR5 [1] is 7.83. Further, the pEC50 in the assay on MV4-11 cells was 7.38. Moreover, the pKd on WDR5 [2] was 8.94.

With `CC(C)[C@H]1CN(c2ncc(-c3c(F)cc(N4CCN(C)[C@@H](C)C4)c(NC(=O)c4c[nH]c(=O)cc4C(F)F)c3F)cn2)CCO1` [Example 121, 4-(Difluoromethyl)-N-(6-((S)-3,4-dimethylpiperazin-1-yl)-2,4-difluoro-3-(2-((S)-2-isopropylmorpholino)pyrimidin-5-yl)phenyl)-6-oxo-1,6-dihydropyridine-3-carboxamide], the negative-log IC50 (pIC50) on WDR5 [1] was 7.92. For the same molecule, the negative-log EC50 (pEC50) in the assay on MV4-11 cells is 7.80. On WDR5 [2], the pKd is 8.97.

For the molecule `C[C@@H]1CN(c2ncc(-c3c(F)cc(N4C[C@@H](C)N(C)[C@@H](C)C4)c(NC(=O)c4c[nH]c(=O)cc4C(F)F)c3F)cn2)CCO1` [Example 130, N-(2,4-difluoro-3-(2-((R)-2-methylmorpholino)pyrimidin-5-yl)-6-((3S,5R)-3,4,5-trimethylpiperazin-1-yl)phenyl)-4-(difluoromethyl)-6-oxo-1,6-dihydropyridine-3-carboxamide], the pIC50 at WDR5 [1] is 8.05. For the same molecule, the negative-log EC50 (pEC50) in the assay with MV4-11 cells is 7.99. Besides, the negative-log Kd (pKd) on WDR5 [2] is 9.26.

As to `C[C@H]1CN(c2cc(F)c(C3=CCN(c4ncc(F)cn4)CC3)c(F)c2NC(=O)c2c[nH]c(=O)cc2C(F)(F)F)CCN1C` [Example 82, (S)—N-(6-(3,4-dimethylpiperazin-1-yl)-2,4-difluoro-3-(1-(5-fluoropyrimidin-2-yl)-1,2,3,6-tetrahydropyridin-4-yl)phenyl)-6-oxo-4-(trifluoromethyl)-1,6-dihydropyridine-3-carboxamide], the pIC50 on WDR5 [1] was 7.80. In addition, in the assay with MV4-11 cells, the pEC50 is 7.28. On WDR5 [2], the negative-log Kd (pKd) was 8.91.

As for `C[C@H]1CN(c2cc(F)c(C3=CCN(c4ccnc(C#N)n4)CC3)c(F)c2NC(=O)c2c[nH]c(=O)cc2C(F)F)CCN1C` [Example 108, (S)—N-(3-(1-(2-cyanopyrimidin-4-yl)-1,2,3,6-tetrahydropyridin-4-yl)-6-(3,4-dimethylpiperazin-1-yl)-2,4-difluorophenyl)-4-(difluoromethyl)-6-oxo-1,6-dihydropyridine-3-carboxamide], the pIC50 at WDR5 [1] is 7.85. Also, the negative logarithm of the EC50 (pEC50) with MV4-11 cells is 7.52. Also, at WDR5 [2], the pKd was 8.78.

`C[C@H]1CN(c2cc(F)c(C3=CCCN(c4ccnc(C#N)n4)C3)c(F)c2NC(=O)c2c[nH]c(=O)cc2C(F)F)CCN1C` [Example 113, (S)—N-(3-(1-(2-cyanopyrimidin-4-yl)-1,2,5,6-tetrahydropyridin-3-yl)-6-(3,4-dimethylpiperazin-1-yl)-2,4-difluorophenyl)-4-(difluoromethyl)-6-oxo-1,6-dihydropyridine-3-carboxamide]: at WDR5 [1], the pIC50 is 7.83. For the same molecule, the negative-log EC50 (pEC50) with MV4-11 cells was 7.07. Besides, the pKd on WDR5 [2] was 8.70.

With `CNC(=O)c1ccc(-c2c(F)cc(N3C[C@@H](C)N(C)[C@@H](C)C3)c(NC(=O)c3c[nH]c(=O)cc3C(F)(F)F)c2F)cc1F` [Example 24, 6-Oxo-N-(2,3′,6-trifluoro-4′-(methylcarbamoyl)-4-((3S,5R)-3,4,5-trimethylpiperazin-1-yl)-[1,1′-biphenyl]-3-yl)-4-(trifluoromethyl)-1,6-dihydropyridine-3-carboxamide], at WDR5 [1], the negative-log IC50 (pIC50) was 7.60. In the assay with MV4-11 cells, the pEC50 is 7.00. The negative logarithm of the Kd (pKd) on WDR5 [2] is 8.52.

Consider `C[C@@H]1CN(c2ncc(-c3c(F)cc(N4CCN(C)[C@@H](C)C4)c(NC(=O)c4ccc(F)cc4C(F)F)c3F)cn2)C[C@H](C)O1` [Example 110, 2-(Difluoromethyl)-N-(3-(2-((2S,6R)-2,6-dimethylmorpholino)pyrimidin-5-yl)-6-((S)-3,4-dimethylpiperazin-1-yl)-2,4-difluorophenyl)-4-fluorobenzamide formic acid], for which the negative logarithm of the IC50 (pIC50) at WDR5 [1] was 7.96. Moreover, the pEC50 in the assay on MV4-11 cells is 7.48. Besides, the negative-log Kd (pKd) at WDR5 [2] was 8.71.

For `C[C@@H]1CN(c2cc(F)c(-c3cnc(N4C[C@H]5CC[C@@H](C4)O5)nc3)c(F)c2NC(=O)c2c[nH]c(=O)cc2C(F)(F)F)C[C@H](C)N1C` [Example 90, N-(3-(2-((R,5S)-8-oxa-3-azabicyclo[3.2.1]octan-3-yl)pyrimidin-5-yl)-2,4-difluoro-6-((3S,5R)-3,4,5-trimethylpiperazin-1-yl)phenyl)-6-oxo-4-(trifluoromethyl)-1,6-dihydropyridine-3-carboxamide], at WDR5 [1], the negative-log IC50 (pIC50) is 7.82. Besides, the pEC50 with MV4-11 cells is 7.52. The negative-log Kd (pKd) at WDR5 [2] was 9.05.

Consider `C[C@@H]1CN(c2cc(F)c(C3=CCN(c4ncc(C#N)s4)CC3)c(F)c2NC(=O)c2c[nH]c(=O)cc2C(F)(F)F)C[C@H](C)N1C` [Example 148, N-(3-(1-(5-cyanothiazol-2-yl)-1,2,3,6-tetrahydropyridin-4-yl)-2,4-difluoro-6-((3S,5R)-3,4,5-trimethylpiperazin-1-yl)phenyl)-6-oxo-4-(trifluoromethyl)-1,6-dihydropyridine-3-carboxamide], for which the negative logarithm of the IC50 (pIC50) on WDR5 [1] is 7.89. In addition, in the assay with MV4-11 cells, the pEC50 is 7.13. Moreover, the pKd on WDR5 [2] is 8.68.

As to `C[C@H]1CN(c2cc(F)c(C3=CCN(C(=O)c4csc(CN(C)C)n4)CC3)c(F)c2NC(=O)c2c[nH]c(=O)cc2C(F)F)CCN1C` [Example 187, (S)-4-(difluoromethyl)-N-(3-(1-(2-((dimethylamino)methyl)thiazole-4-carbonyl)-1,2,3,6-tetrahydropyridin-4-yl)-6-(3,4-dimethylpiperazin-1-yl)-2,4-difluorophenyl)-6-oxo-1,6-dihydropyridine-3-carboxamide], the negative-log IC50 (pIC50) on WDR5 [1] is 7.83. Further, the pEC50 in the assay on MV4-11 cells was 6.04. In addition, on WDR5 [2], the negative logarithm of the Kd (pKd) is 8.53.

Take `C[C@H]1CN(c2ncc(-c3c(F)cc(N4CCN(C)[C@@H](C)C4)c(NC(=O)c4cn(C)c(=O)cc4C(F)(F)F)c3F)cn2)C[C@H](C)O1` [Example 163, N-(3-(2-((2S,6S)-2,6-dimethylmorpholino)pyrimidin-5-yl)-6-((S)-3,4-dimethylpiperazin-1-yl)-2,4-difluorophenyl)-1-methyl-6-oxo-4-(trifluoromethyl)-1,6-dihydropyridine-3-carboxamide]: at WDR5 [1], the pIC50 was 7.82. Further, the pEC50 in the assay on MV4-11 cells is 7.08. The pKd on WDR5 [2] is 8.96.

Take `C[C@@H]1CN(c2ccc(-c3c(F)cc(N4CCN(C)[C@@H](C)C4)c(NC(=O)c4ccc(F)cc4C(F)(F)F)c3F)cn2)CCO1` [Example 172, N-(6-((S)-3,4-dimethylpiperazin-1-yl)-2,4-difluoro-3-(6-((R)-2-methylmorpholino)pyridin-3-yl)phenyl)-4-fluoro-2-(trifluoromethyl)benzamide]: the negative logarithm of the IC50 (pIC50) at WDR5 [1] was 7.72. For the same molecule, the negative logarithm of the EC50 (pEC50) in the assay with MV4-11 cells is 6.91. Moreover, the pKd at WDR5 [2] was 8.99.
